Data as given in patent publication US20250289795A1, “METHOD FOR PREPARATION OF COMPOUND POSSESSING 5-PENTYLFURFURAL (5-PF) STRUCTURE AND USE THEREOF” (FUGENBIO CO., LTD., priority 2022, published 2025).

Assays:
B16F10 cells = settings: cited from earlier work
[1] = tested on: AMP-activated protein kinase (AMPK); experiment: AMPK expression in differentiated C2C12 cells; format: cell-based; settings: C2C12, positive control 90 μg/mL
Procedure: In order to confirm the effect of 5-PF-Q on the expression of AMP-activated protein kinase (AMPK), differentiated muscle cell C2C12 cells were treated with 5-PF-Q at 10 μg/mL, 50 μg/mL, and 100 μg/mL for 24 hours, respectively, as shown in FIG. 7 (10% gel, 20 μg PTN, 1° ab pAMPK 1:3,000, tAMPK 1:1,000/2° ab 1:4,000).

Ob/Ob mice = experiment: antidiabetic effect in Ob/Ob mice; format: in vivo
Procedure: In order to confirm the antidiabetic effect of 5-PF-Q, the changes, due to the administration of 5-PF-Q, in body weight, food intake, reduction of blood sugar levels, toxicity, and insulin resistance were measured.
The mice were divided into group A (weight 35 g or more) and group B (weight 35 g or less) based on body weight. According to the flowchart below, each group was assigned to a metformin (200 mg/kg) administration group (positive control group) and a 5-PF-Q (15 mg/kg) administration group (experimental group) and administered orally for 3 weeks. After the 3-week administration period, blood sugar levels were measured by performing an oral glucose tolerance test (OGTT), and the mice were sacrificed 3 weeks thereafter. OGTT was also performed at the same time point for the Ob/Ob vehicle group (negative control group) that was not administered with the compound, and non-diabetic C57BL/6 mice, and they were sacrificed.

Row | SMILES | cytotoxicity (B16F10 cells) | inhibition of melanin production IC50 (B16F10 cells) [µg/mL] | expression of AMPK (pAMPK/tAMPK) [1] | insulin resistance compared to Ob/Ob vehicle group (Ob/Ob mice; Ob/Ob mice, 200 mg/kg) | OGTT blood sugar reduction pattern (Ob/Ob mice; group A (35 g or more), 200 mg/kg oral for 3 weeks)
1 | CCCCCc1ccc(C=O)o1 [5-pentyl-2-furaldehyde] | without cytotoxicity | 8.4 | – | – | –
2 | CN(C)C(=N)N=C(N)N [metformin] | – | – | clearly observed | tendency to improve insulin resistance | blood sugar reduction pattern was similar
